# Laboratory results reported in patent publication US20080103205A1, “Pesticidal compositions and methods of use” (priority 2006, published 2008).
# Experiments:
# [1] = test system: Meloidogyne incognita eggs; assay: M. incognita egg hatching; format: in vivo
# Description: Meloidogyne incognita (plant parasitic nematode) eggs were collected from tomato plant roots and were suspended in water. The solution was either diluted or concentrated to adjust the egg load to about 5000/ml. AT stock solutions prepared in DMSO and 300 ul of test solution was placed in a well, along with 20 ul of aqueous solution containing eggs. The number of eggs in 20 ul solution ranged from 115 to 143 (n=10). Each treatment (2, 5, 10, 20, or 40 ppm) was replicated 5 times. Microplates were sealed with Parafilm™ and incubated at room temperature. Similar tests conducted with 0.2% DMSO alone served as controls. Egg hatching was monitored at 24, 72, 120, and 168 hr after incubation. Both moving and non-moving nematodes were counted to arrive at the number of eggs hatched. Proportion of egg hatch was calculated as the number of juveniles divided by total number of eggs.
# VSCC blockers effect on M. incognita egg hatching is shown in the following tables where % hatched is rounded to the nearest percentage point and where “% C*” is % hatch, normalized to control.
# [2] = test system: European corn borer (Ostrinia nubilalis); assay: Diet surface test on European corn borer larvae (2nd instar); format: in vivo; details: for No. dead: 10 larvae
# Description: Concentrations of 6.25, 12.5, 25, or 50 ppm AT blocker were prepared in 95% ethyl alcohol (EtOH). 95% EtOH alone served as control. European corn borer (ECB) diet prepared from the powdered diet supplied by French Agricultural Research, Inc. Diet (1-2 ml) was poured into small cups and allowed to cool to room temperature. Test solution (100 ul) was placed onto the diet surface and allowed to evaporate the solvent. Each concentration of chemical had 2 sets of 10 cups each. One late 2nd instar larva was placed in each cup and covered with lid having perforations for aeration. Cups were placed in an incubator for 7 days at 25±1° C. and 70±5% RH. After seven days, the weight of each larva was taken and any mortality was recorded. Then, the surviving larvae were transferred to fresh diet cups holding sufficient diet (5-6 ml) without chemicals and incubated at 25±1° C. and 70±5% RH until pupation. Weights of larvae were taken 14 days after transferring to fresh diet (21 days after start of treatment). Finally, the number of days until pupation was recorded.
# Anion transporters caused larval death and a reduction in weight gain within 7 days exposure. The effect persisted for 2 weeks time on untreated diet, but total time to pupation was relatively unaffected.
compound,measurement,setting,value
"O=C(O)c1cc([N+](=O)[O-])ccc1NCCCc1ccccc1 [NPPB, 5-Nitro-2-(3-phenylpropylamino)benzoic acid]",Eggs Hatched %,"[1]; 2 ppm, 24 hr",10%
same,"Eggs Hatched % C* (% hatch, normalized to control)","[1]; 2 ppm, 24 hr",100%
same,Eggs Hatched No.,"[1]; 2 ppm, 24 hr",61
same,Eggs Hatched %,"[1]; 2 ppm, 72 hr",14%
same,"Eggs Hatched % C* (% hatch, normalized to control)","[1]; 2 ppm, 72 hr",87%
same,Eggs Hatched No.,"[1]; 2 ppm, 72 hr",92
same,Eggs Hatched %,"[1]; 2 ppm, 120 hr",19%
same,"Eggs Hatched % C* (% hatch, normalized to control)","[1]; 2 ppm, 120 hr",86%
same,Eggs Hatched No.,"[1]; 2 ppm, 120 hr",127
same,Eggs Hatched %,"[1]; 2 ppm, 168 hr",23%
same,"Eggs Hatched % C* (% hatch, normalized to control)","[1]; 2 ppm, 168 hr",83%
same,Eggs Hatched No.,"[1]; 2 ppm, 168 hr",155
same,Eggs Hatched %,"[1]; 5 ppm, 24 hr",10%
same,"Eggs Hatched % C* (% hatch, normalized to control)","[1]; 5 ppm, 24 hr",100%
same,Eggs Hatched No.,"[1]; 5 ppm, 24 hr",58
same,Eggs Hatched %,"[1]; 5 ppm, 72 hr",14%
same,"Eggs Hatched % C* (% hatch, normalized to control)","[1]; 5 ppm, 72 hr",87%
same,Eggs Hatched No.,"[1]; 5 ppm, 72 hr",86
same,Eggs Hatched %,"[1]; 5 ppm, 120 hr",18%
same,"Eggs Hatched % C* (% hatch, normalized to control)","[1]; 5 ppm, 120 hr",82%
same,Eggs Hatched No.,"[1]; 5 ppm, 120 hr",118
same,Eggs Hatched %,"[1]; 5 ppm, 168 hr",22%
same,"Eggs Hatched % C* (% hatch, normalized to control)","[1]; 5 ppm, 168 hr",79%
same,Eggs Hatched No.,"[1]; 5 ppm, 168 hr",149
same,Eggs Hatched %,"[1]; 10 ppm, 24 hr",9%
same,"Eggs Hatched % C* (% hatch, normalized to control)","[1]; 10 ppm, 24 hr",90%
same,Eggs Hatched No.,"[1]; 10 ppm, 24 hr",58
same,Eggs Hatched %,"[1]; 10 ppm, 72 hr",12%
same,"Eggs Hatched % C* (% hatch, normalized to control)","[1]; 10 ppm, 72 hr",75%
same,Eggs Hatched No.,"[1]; 10 ppm, 72 hr",82
same,Eggs Hatched %,"[1]; 10 ppm, 120 hr",16%
same,"Eggs Hatched % C* (% hatch, normalized to control)","[1]; 10 ppm, 120 hr",72%
same,Eggs Hatched No.,"[1]; 10 ppm, 120 hr",105
same,Eggs Hatched %,"[1]; 10 ppm, 168 hr",20%
same,"Eggs Hatched % C* (% hatch, normalized to control)","[1]; 10 ppm, 168 hr",71%
same,Eggs Hatched No.,"[1]; 10 ppm, 168 hr",129
same,Eggs Hatched %,"[1]; 20 ppm, 24 hr",9%
same,"Eggs Hatched % C* (% hatch, normalized to control)","[1]; 20 ppm, 24 hr",90%
same,Eggs Hatched No.,"[1]; 20 ppm, 24 hr",52
same,Eggs Hatched %,"[1]; 20 ppm, 72 hr",11%
same,"Eggs Hatched % C* (% hatch, normalized to control)","[1]; 20 ppm, 72 hr",69%
same,Eggs Hatched No.,"[1]; 20 ppm, 72 hr",67
same,Eggs Hatched %,"[1]; 20 ppm, 120 hr",14%
same,"Eggs Hatched % C* (% hatch, normalized to control)","[1]; 20 ppm, 120 hr",64%
same,Eggs Hatched No.,"[1]; 20 ppm, 120 hr",85
same,Eggs Hatched %,"[1]; 20 ppm, 168 hr",17%
same,"Eggs Hatched % C* (% hatch, normalized to control)","[1]; 20 ppm, 168 hr",61%
same,Eggs Hatched No.,"[1]; 20 ppm, 168 hr",106
same,Eggs Hatched %,"[1]; 40 ppm, 24 hr",8%
same,"Eggs Hatched % C* (% hatch, normalized to control)","[1]; 40 ppm, 24 hr",80%
same,Eggs Hatched No.,"[1]; 40 ppm, 24 hr",47
same,Eggs Hatched %,"[1]; 40 ppm, 72 hr",11%
same,"Eggs Hatched % C* (% hatch, normalized to control)","[1]; 40 ppm, 72 hr",69%
same,Eggs Hatched No.,"[1]; 40 ppm, 72 hr",61
same,Eggs Hatched %,"[1]; 40 ppm, 120 hr",11%
same,"Eggs Hatched % C* (% hatch, normalized to control)","[1]; 40 ppm, 120 hr",50%
same,Eggs Hatched No.,"[1]; 40 ppm, 120 hr",74
same,Eggs Hatched %,"[1]; 40 ppm, 168 hr",12%
same,"Eggs Hatched % C* (% hatch, normalized to control)","[1]; 40 ppm, 168 hr",43%
same,Eggs Hatched No.,"[1]; 40 ppm, 168 hr",82
same,No. dead,"[2]; 6.25 ppm, 7 days after feeding",0
same,No. dead,"[2]; 6.25 ppm, 21 days after feeding",0
same,No. dead,"[2]; 12.5 ppm, 7 days after feeding",0
same,No. dead,"[2]; 12.5 ppm, 21 days after feeding",0
same,No. dead,"[2]; 25 ppm, 21 days after feeding",2
same,Days for pupation,[2]; 50 ppm,0 days
same,No. dead,"[2]; 50 ppm, 7 days after feeding",8
same,% wt reduction to control,"[2]; 50 ppm, 21 days after feeding",0%
same,"Mean wt of survived larvae, mg","[2]; 50 ppm, 21 days after feeding",0 mg
same,No. dead,"[2]; 50 ppm, 21 days after feeding",10
same,mortality at 6.25 ppm,"[2]; Ostrinia nubilalis, 168 h, 6.25 ppm, 7 days after feeding",0%
same,mortality at 12.5 ppm,"[2]; Ostrinia nubilalis, 168 h, 12.5 ppm, 7 days after feeding",0%
same,mortality at 50 ppm,"[2]; Ostrinia nubilalis, 168 h, 50 ppm, 7 days after feeding",80%
same,mortality at 6.25 ppm,"[2]; Ostrinia nubilalis, 504 h, 6.25 ppm, 21 days after feeding",0%
same,mortality at 12.5 ppm,"[2]; Ostrinia nubilalis, 504 h, 12.5 ppm, 21 days after feeding",0%
same,mortality at 25 ppm,"[2]; Ostrinia nubilalis, 504 h, 25 ppm, 21 days after feeding",20%
same,mortality at 50 ppm,"[2]; Ostrinia nubilalis, 504 h, 50 ppm, 21 days after feeding",100%
